Common to all, as to experiment: ≥ marks a high value that may be exact or a test limit, other limits are often not marked, values filed in µg/mL are converted to µM
Experiment [1] deals with Staphylococcus aureus ATCC 6538P.
In experiment [2] the test system is Escherichia coli K-12 594.
The subject of experiment [3] is Staphylococcus aureus SR1550.
For experiment [4], the system named is Pseudomonas syringae pv. tomato.
Experiment [5] concerns Enterococcus faecalis NCTC 775.
The subject of experiment [6] is Escherichia coli NCTC 12923.
In experiment [7] the test system is Klebsiella pneumoniae M6.
The test system of experiment [8] is Enterococcus faecalis NCTC 12204.
Experiment [9] concerns Enterococcus faecalis NCTC 12201.
In experiment [10] the test system is Pseudomonas aeruginosa PAO1.
Experiment [11] deals with Staphylococcus aureus 15.
In experiment [12] the test system is Klebsiella pneumoniae NCTC 13368.
Experiment [13] relates to Xanthomonas axonopodis pv. phaseoli.
Experiment [14] deals with Acinetobacter baumannii ATCC 17987.
Experiment [15] relates to Acinetobacter baumannii AYE.
Experiment [16] deals with Pseudomonas aeruginosa NCTC 13437.
The subject of experiment [17] is Staphylococcus aureus NCTC 9144.
The test system of experiment [18] is Staphylococcus aureus.
In experiment [19] the test system is Bacillus subtilis KCTC 3068.
Experiment [20] deals with Staphylococcus epidermidis KCTC 1917.
The test system of experiment [21] is Enterococcus faecalis VR.
For experiment [22], the system named is Enterococcus faecium VR.
Experiment [23] concerns Staphylococcus aureus KCTC 1621.
In experiment [24] the test system is Salmonella typhimurium KCTC 1926.
The subject of experiment [25] is Staphylococcus aureus MR.
The test system of experiment [26] is Escherichia coli KCTC 1682.
The subject of experiment [27] is Enterococcus faecium.
Experiment [28] relates to Enterococcus faecalis.
For experiment [29], the system named is Escherichia coli JM109.
Experiment [30] relates to Pseudomonas aeruginosa KCTC 1637.

Each structure is given as a SMILES string. Values after ≈ are worked out from the molar mass of the structure shown. Some results are limits rather than exact numbers.

`CC(C)C[C@H](NC(=O)[C@H](CCCN=C(N)N)NC(=O)[C@H](CC(C)C)NC(=O)[C@H](CC(C)C)NC(=O)[C@H](CC(C)C)NC(=O)[C@H](CC(C)C)NC(=O)[C@H](CC(C)C)NC(=O)[C@H](CCCCN)NC(=O)[C@H](CC(C)C)NC(=O)[C@@H](N)CCCN=C(N)N)C(=O)N[C@@H](CCCCN)C(N)=O` [RLKLLLLLRLK]: the MIC in [1] worked out at 0.725 µM (≈ 0.999 µg/mL); in [2], 14.5 µM (≈ 20 µg/mL); in [3] it was 21.8 µM (≈ 30 µg/mL).
Take `CC[C@H](C)[C@H](NC(=O)[C@H](CCC(=O)O)NC(=O)[C@H](CC(N)=O)NC(=O)[C@H](CCCCN)NC(=O)[C@H](CC(C)C)NC(=O)[C@H](Cc1ccc(O)cc1)NC(=O)[C@H](CCC(N)=O)NC(=O)[C@H](CCCN=C(N)N)NC(=O)[C@@H](NC(=O)[C@@H](NC(=O)[C@H](CCC(=O)O)NC(=O)[C@H](CCCCN)NC(=O)CNC(=O)[C@H](C)N)[C@@H](C)O)[C@@H](C)CC)C(=O)N[C@@H](CCCCN)C(=O)N[C@@H](CCCCN)C(=O)N[C@@H](CCCCN)C(=O)NCC(=O)N[C@@H](CCCN=C(N)N)C(=O)N[C@@H](CCCCN)C(=O)N[C@@H](C)C(=O)N[C@H](C(=O)N[C@H](C(=O)N[C@@H](C)C(=O)N[C@@H](Cc1c[nH]c2ccccc12)C(=O)O)[C@@H](C)CC)C(C)C` [AGKETIRQYLKNEIKKKGRKAVIAW]: the MIC in experiment [4] is 5.46 µM (≈ 16 µg/mL); in [5], ≥ 43.7 µM; in [6], 21.8 µM (≈ 64 µg/mL); in experiment [7], ≥ 43.7 µM; in experiment [8], ≥ 43.7 µM; in experiment [9], ≥ 43.7 µM. The MIC was > 43.7 µM in experiment [10]; ≥ 43.7 µM in [11]; ≥ 43.7 µM in experiment [12]; 1.37 µM (≈ 4 µg/mL) in experiment [13]; 21.8 µM (≈ 64 µg/mL) in experiment [14]; 10.9 µM (≈ 32 µg/mL) in experiment [15]. The minimal inhibitory concentration (MIC) in experiment [16] and in experiment [17] was ≥ 43.7 µM each time.
`CC[C@H](C)[C@H](NC(=O)[C@H](C)NC(=O)[C@H](CC(C)C)NC(=O)[C@H](CS)NC(=O)[C@H](Cc1cnc[nH]1)NC(=O)[C@H](C)NC(=O)[C@H](C)N)C(=O)NCC(=O)N[C@@H](CCCN=C(N)N)C(=O)N[C@@H](CCCN=C(N)N)C(N)=O` [AAHCLAIGRR]: the minimum inhibitory concentration (MIC) in experiment [18] was > 60 µM; in [1], 4.68 µM; in experiment [19], 7.5 µM; in experiment [20], 15 µM; in experiment [21], 30 µM; in [22] it was 15 µM. Also, the MIC came out at 7.5 µM in [23]; 15 µM in experiment [24]; 30 µM in experiment [25]; 15 µM in experiment [26]; 15 µM in experiment [27]; 15 µM in experiment [28]. The MIC in experiment [29] and in experiment [30] was 15 µM in each case.
For `CC(C)C[C@H](NC(=O)[C@H](CC(C)C)NC(=O)[C@H](CC(C)C)NC(=O)[C@H](CC(C)C)NC(=O)[C@H](CC(C)C)NC(=O)[C@H](CCCCN)NC(=O)[C@@H](N)CCCCN)C(=O)N[C@@H](CCCCN)C(=O)N[C@@H](CCCCN)C(N)=O` [KKLLLLLKK], the results for the minimal inhibitory concentration (MIC) in experiment [1], in experiment [2] and in experiment [3] were 14.6 µM (≈ 16 µg/mL), 31.9 µM (≈ 35 µg/mL) and 31.9 µM (≈ 35 µg/mL), respectively.
Regarding `CC[C@H](C)[C@H](NC(=O)[C@H](CCC(=O)O)NC(=O)[C@H](CC(N)=O)NC(=O)[C@H](CCCCN)NC(=O)[C@H](CC(C)C)NC(=O)[C@H](CCCCN)NC(=O)[C@H](CCCCN)NC(=O)[C@H](CCCN=C(N)N)NC(=O)[C@@H](NC(=O)[C@H](CCCCN)NC(=O)[C@H](CCC(=O)O)NC(=O)[C@H](CCCCN)NC(=O)CNC(=O)[C@H](C)N)[C@@H](C)CC)C(=O)N[C@@H](CCCCN)C(=O)N[C@@H](CCCCN)C(=O)N[C@@H](CCCCN)C(=O)NCC(=O)N[C@@H](CCCN=C(N)N)C(=O)N[C@@H](CCCCN)C(=O)N[C@@H](C)C(=O)N[C@H](C(=O)N[C@H](C(=O)N[C@@H](C)C(=O)N[C@@H](Cc1c[nH]c2ccccc12)C(=O)O)[C@@H](C)CC)C(C)C` [AGKEKIRKKLKNEIKKKGRKAVIAW], the minimum inhibitory concentration (MIC) in experiment [4] was 1.37 µM (≈ 4 µg/mL); in experiment [5], ≥ 43.8 µM; in experiment [6], 11 µM (≈ 32 µg/mL); in [7] it was ≥ 43.8 µM; in [8], ≥ 43.8 µM; in experiment [9] it was ≥ 43.8 µM. In addition, the MIC in experiment [10] was > 43.8 µM; in experiment [11] it was ≥ 43.8 µM; in [12] it was ≥ 43.8 µM; in experiment [13], 0.342 µM (≈ 1 µg/mL); in experiment [14], 21.9 µM (≈ 64 µg/mL); in experiment [15], 21.9 µM (≈ 64 µg/mL). For the same molecule, the MIC in experiment [16] and in experiment [17] was ≥ 43.8 µM in each case.
Regarding `CC[C@H](C)[C@H](NC(=O)[C@H](C)NC(=O)[C@H](CC(C)C)NC(=O)[C@H](CS)NC(=O)[C@H](Cc1cnc[nH]1)NC(=O)[C@H](C)NC(=O)[C@H](C)N)C(=O)NCC(=O)N[C@@H](CCCN=C(N)N)C(=O)N[C@@H](CCCCN)C(N)=O` [AAHCLAIGRK], the MIC turned out to be 7.5 µM in [19]; 7.5 µM in experiment [20]; 30 µM in experiment [21]; 3.8 µM in [22]; 7.5 µM in [23]; 7.5 µM in [24]. Moreover, the MIC in experiment [25] was 7.5 µM; in experiment [26], 7.5 µM; in experiment [27], 7.5 µM; in [28], 15 µM; in [30] it was 7.5 µM.
In the case of `CC(C)C[C@H](NC(=O)[C@H](CCCN=C(N)N)NC(=O)[C@H](CC(C)C)NC(=O)[C@H](CC(C)C)NC(=O)[C@H](CC(C)C)NC(=O)[C@H](CCCCN)NC(=O)[C@H](CC(C)C)NC(=O)[C@@H](N)CCCN=C(N)N)C(=O)N[C@@H](CCCCN)C(N)=O` [RLKLLLRLK], the values for the MIC in experiment [1], in experiment [2] and in [3] were 1.74 µM (≈ 2 µg/mL), 26 µM (≈ 30 µg/mL) and 30.4 µM (≈ 35 µg/mL), respectively.

In general, MIC refers to the lowest concentration that inhibits growth of the organism.

Values taken from DBAASP.
